Values quoted from earlier work in publication PMC4360375 (Journal of Medicinal Chemistry, 2015).

System: GABA uptake, rat synaptosome
Conditions: literature data set; ref 10.1016/S0968-0896(01)00148-1; cited from earlier work

Row | Compound | pIC50
1 | O=C(O)[C@@H]1CCCN(CCON=C(Cc2ccccc2)Cc2ccccc2)C1 [An_2001/6_19, O(\N=C(\Cc1ccccc1)/Cc1ccccc1)CCN1C[C@@H](CCC1)C(O)=O] | 5.987
2 | O=C(O)[C@@H]1CCCN(CCO/N=C2\c3ccccc3CC[C@@H]2c2ccccc2)C1 [An_2001/6_27, O(\N=C\1/c2c(CC[C@@H]/1c1ccccc1)cccc2)CCN1C[C@@H](CCC1)C(O)=O] | 6.058
3 | O=C(O)[C@@H]1CCCN(CCOCc2ccccc2-c2ccccc2)C1 [An_2001/6_35, O(Cc1ccccc1-c1ccccc1)CCN1C[C@@H](CCC1)C(O)=O] | 6.476
4 | O=C(O)[C@@H]1CCCN(CCO/N=C(/Cc2ccccc2)c2ccccc2)C1 [An_2001/6_16, O(\N=C(\Cc1ccccc1)/c1ccccc1)CCN1C[C@@H](CCC1)C(O)=O] | 6.87
5 | O=C(O)[C@@H]1CCCN(CCOCc2ccccc2Cc2ccccc2)C1 [An_2001/6_37, O(Cc1ccccc1Cc1ccccc1)CCN1C[C@@H](CCC1)C(O)=O] | 6.495
6 | CC(C)C/C(=N/OCCN1CCC[C@@H](C(=O)O)C1)c1ccccc1 [An_2001/6_15, O(\N=C(\CC(C)C)/c1ccccc1)CCN1C[C@@H](CCC1)C(O)=O] | 6.553
7 | CC(C)/C=C(/C=N/OCCN1CCC[C@@H](C(=O)O)C1)c1ccccc1 [An_2001/6_21, O(\N=C\C(=C\C(C)C)\c1ccccc1)CCN1C[C@@H](CCC1)C(O)=O] | 6.569
8 | O=C(O)[C@@H]1CCCN(CCO/N=C(\c2ccccc2)C2CC2)C1 [An_2001/6_14, O(\N=C(\C1CC1)/c1ccccc1)CCN1C[C@@H](CCC1)C(O)=O] | 5.907
9 | O=C(O)[C@@H]1CCCN(CCO/N=C2\CCCC[C@@H]2c2ccccc2)C1 [An_2001/6_24, O(\N=C\1/CCCC[C@@H]/1c1ccccc1)CCN1C[C@@H](CCC1)C(O)=O] | 6.489
10 | O=C(O)[C@@H]1CCCN(CCOc2ccccc2)C1 [An_2001/6_32, O(CCN1C[C@@H](CCC1)C(O)=O)c1ccccc1] | 5.046

Same assay, conditions: literature data set; ref 10.1021/jm00064a005; cited from earlier work

Row | Compound | pIC50
11 | O=C(O)C1=CCCN(CC/C=C(\c2ccccc2)c2cccs2)C1 [An_1993_36, s1cccc1/C(=C/CCN1CC(=CCC1)C(O)=O)/c1ccccc1] | 6.577
12 | Cc1ccsc1/C(=C/CCN1CCC=C(C(=O)O)C1)c1cc(Cl)cc(Cl)c1 [An_1993_38, Clc1cc(cc(Cl)c1)/C(=C\CCN1CC(=CCC1)C(O)=O)/c1sccc1C] | 5.73
13 | O=C(O)[C@@H]1CCCN(CCC=C2c3ccccc3-c3ccccc32)C1 [compound 7, OC(=O)[C@@H]1CCCN(C1)CC\C=C/1\c2c(-c3c\1cccc3)cccc2] | 5.717
14 | O=C(O)[C@@H]1CCCN(CCC=C(c2ccccc2)c2ccccc2)C1 [(R)-SK&F-89976-A, OC(=O)[C@@H]1CCCN(C1)CC\C=C(\c1ccccc1)/c1ccccc1] | 6.959
15 | Cc1ccsc1/C(=C/CCN1CCC=C(C(=O)O)C1)c1cccs1 [An_1993_42, s1ccc(C)c1\C(=C\CCN1CC(=CCC1)C(O)=O)\c1sccc1] | 6.959

Same assay, conditions: literature data set; ref 10.1021/jm980492e; cited from earlier work

Row | Compound | pIC50
16 | O=C(O)[C@@H]1CCCN(CCON=C(c2ccccc2)c2ccccc2)C1 [An_1999/4_(R)-7, O(\N=C(\c1ccccc1)/c1ccccc1)CCN1C[C@@H](CCC1)C(O)=O] | 6.863
17 | O=C(O)[C@@H]1CCCN(CCCCCN(c2ccccc2)c2ccccc2)C1 [An_1999/4_(R)-12, OC(=O)[C@@H]1CCCN(C1)CCCCCN(c1ccccc1)c1ccccc1] | 5.86
18 | O=C(O)[C@@H]1CCCN(CCOCCOCCN(c2ccccc2)c2ccccc2)C1 [An_1999/4_(R)-20, O(CCN1C[C@@H](CCC1)C(O)=O)CCOCCN(c1ccccc1)c1ccccc1] | 5.046
19 | O=C(O)[C@@H]1CCCN(CCOCC=C(c2ccc(F)cc2)c2ccc(F)cc2)C1 [An_1999/4_(R)-26, Fc1ccc(cc1)\C(=C\COCCN1C[C@@H](CCC1)C(O)=O)\c1ccc(F)cc1] | 5.836
20 | O=C(O)[C@@H]1CCCN(CCOCC=C(c2ccccc2)c2ccccc2)C1 [An_1999/4_(R)-21, O(CCN1C[C@@H](CCC1)C(O)=O)C\C=C(\c1ccccc1)/c1ccccc1] | 6.585
21 | O=C(O)[C@@H]1CCCN(CCCCCCCN(c2ccccc2)c2ccccc2)C1 [An_1999/4_(R)-14] | 6.638

Same assay, conditions: literature data set; ref 10.1021/jm981027k; cited from earlier work

Row | Compound | pIC50
22 | Cc1ccsc1/C(=N\OCCN1CCC[C@@H](C(=O)O)C1)c1cccs1 [An_1999/3_81, s1ccc(C)c1\C(=N/OCCN1C[C@@H](CCC1)C(O)=O)\c1sccc1] | 7.155
23 | Cc1cc(F)ccc1C(=COCCN1CCC[C@@H](C(=O)O)C1)c1ccc(F)cc1C [An_1999/3_77, Fc1cc(C)c(cc1)\C(=C\OCCN1C[C@@H](CCC1)C(O)=O)\c1ccc(F)cc1C] | 7.222
24 | O=C(O)[C@@H]1CCCN(CCOC=C(c2ccc(F)cc2F)c2ccc(F)cc2F)C1 [An_1999/3_79, Fc1cc(F)ccc1\C(=C\OCCN1C[C@@H](CCC1)C(O)=O)\c1ccc(F)cc1F] | 6.886
25 | Cc1ccccc1/C(=N/OCCN1CCC[C@@H](C(=O)O)C1)c1sccc1C [An_1999/3_39, s1ccc(C)c1/C(=N\OCCN1C[C@@H](CCC1)C(O)=O)/c1ccccc1C] | 7.155
26 | O=C(O)[C@@H]1CCCN(CCO/C=C(/c2ccc(F)cc2F)c2cc(F)ccc2F)C1 [An_1999/3_106, Fc1cc(F)ccc1/C(=C/OCCN1C[C@@H](CCC1)C(O)=O)/c1cc(F)ccc1F] | 7.301
27 | Cc1ccccc1C(=COCCN1CCC=C(C(=O)O)C1)c1ccccc1C [An_1999/3_70, O(\C=C(\c1ccccc1C)/c1ccccc1C)CCN1CC(=CCC1)C(O)=O] | 7.585
28 | O=C(O)[C@@H]1CCCN(CCO/N=C(/c2ccccc2)c2ccccn2)C1 [compound 11, O(\N=C(\c1ccccc1)/c1ncccc1)CCN1C[C@@H](CCC1)C(O)=O] | 5.684
29 | Cc1ccsc1/C(=N\OCCN1CCC[C@@H](C(=O)O)C1)c1ccc(Cl)cc1Cl [An_1999/3_85, Clc1cc(Cl)ccc1\C(=N\OCCN1C[C@@H](CCC1)C(O)=O)\c1sccc1C] | 7.523
30 | Cc1ccccc1/C(=N\OCCN1CCC=C(C(=O)O)C1)c1cccc(Cl)c1 [An_1999/3_92, Clc1cc(ccc1)/C(=N/OCCN1CC(=CCC1)C(O)=O)/c1ccccc1C] | 6.824
31 | O=C(O)[C@H]1CCCN(CCON=C(c2ccccc2)c2ccccc2)C1 [An_1999/3_61, O(\N=C(\c1ccccc1)/c1ccccc1)CCN1C[C@H](CCC1)C(O)=O] | 6.377
32 | O=C(O)C1=CCCN(CCOC=C(c2cccc(F)c2)c2cccc(F)c2)C1 [An_1999/3_105, Fc1cc(ccc1)\C(=C\OCCN1CC(=CCC1)C(O)=O)\c1cc(F)ccc1] | 6.456

Same assay, conditions: literature data set; ref 10.1021/jm990513k; cited from earlier work

Row | Compound | pIC50
33 | O=C(O)[C@@H]1CCCN(CCON=C2c3ccccc3CCc3ccccc32)C1 [An_2001/5_16, O(\N=C/1\c2c(CCc3c\1cccc3)cccc2)CCN1C[C@@H](CCC1)C(O)=O] | 5.936
34 | O=C(O)[C@H]1CCCN(CCOCCN2c3ccccc3Sc3ccc(C(F)(F)F)cc32)C1 [An_2001/5_22, S1c2c(N(c3c1cccc3)CCOCCN1C[C@H](CCC1)C(O)=O)cc(cc2)C(F)(F)F] | 6.979
35 | O=C(O)[C@@H]1CCCN(CCOC/C=C2\c3ccccc3CCc3ccc(Cl)cc32)C1 [An_2001/5_35, Clc1cc\2c(CCc3c(cccc3)/C/2=C\COCCN2C[C@@H](CCC2)C(O)=O)cc1] | 5.603
36 | O=C(O)[C@@H]1CCCN(CCOCCN2c3ccccc3Oc3ccccc32)C1 [An_2001/5_20, O1c2c(N(c3c1cccc3)CCOCCN1C[C@@H](CCC1)C(O)=O)cccc2] | 5.836
37 | O=C(O)[C@@H]1CCCN(CCOCCn2c3ccccc3c3ccccc32)C1 [An_2001/5_19, O(CCN1C[C@@H](CCC1)C(O)=O)CCn1c2c(c3c1cccc3)cccc2] | 4.398
